Experimental data as given in US20150315179A1, “COMPOUNDS AND METHODS OF TREATING NEUROLOGICAL DISORDERS” (Torrey Pines Institute For Molecular Studies, priority 2014, published 2015).

Legend:
sAPPα [1] = experiment: Mouse brain lysate immunoblot, sAPPα; assay type: in vivo; details: i.p. 100 mg/kg for 5 days, brain lysates
Description: (§1) FIGS. 9.2A and B illustrate that THPI-244 increases TrkA and sAPPα in the mouse brain. FIG. 9.2A illustrates that THPI-244 was administered to mice by i.p. injections at 100 mg/kg body weight for 5 days and the brain lysates were subjected to immunoblots. Specific antibodies were used to detect TrkA and sAPPα. […] Data are mean±SEM, n=3*, p<0.05, ***, p<0.001.

TrkA protein levels = experiment: TrkA protein immunoblot, NT2 cells with or without PKC inhibitor; assay type: cell-based, human
Description: (3). THPI-244 increases TrkA receptor levels independent of protein kinase C (PKC). Next to clarify whether increased sAPPα levels depends on increased TrkA activation, NT2 cells were treated with THPI-244 with or without TrkA inhibitor (cat # GW 441756, Tocris Bioscience) at 50 nM final concentration. After 24 h, sAPPα levels were quantified from the conditioned medium by immunoblots. […] We next wanted to address whether increased TrkA protein levels by THPI-244 depends on PKC since PKC activators are well-known to induce sAPPα secretion (Etcheberringaray, R., et al., 2004, PNAS, 101, 11141-11146). NT2 cells were similarly treated with THPI-244 at 100 nM with or without PKC inhibitor (GF 109203, cat #0741, Tocris Bioscience) at 1.0 nM and TrkA protein levels were quantified by immunoblots as shown in FIG. 1.10 (right). […] Thus increased sAPPα level by THPI-244 is through upregulation of TrkA receptor independent of PKC.

human primary neurons = experiment: MTT cytotoxicity, human primary neurons; assay type: cell-based
Source text: (4). Toxicity is another crucial limitation for successful drug development as evidenced by recent failure of γ-secretase inhibitors at the clinical trials due to cytotoxicity (Cole, S L and Vassar, R, 2007, Mol. Neurodeg. 2, 22-47; Doody R S, et al. 2013. N. Eng. J. Med. 369, 341-350). Therefore we measured cytotoxicity by very sensitive MTT assay as described previously (Hayes, C D., et al. 2013, BMC Medicine. 26, 11.81; 23; Hayes, C D., et al., 2012, PLoS One 7, e45841) in human primary neurons obtained from a commercial source (cat #1520, ScienCell, Carlsbad, Calif., USA) and fibroblasts derived directly from A D patients (cat# AG06263C, Coriell Institute Cell repository supported by NINDS, NIH). […] We directly used human neurons for toxicity studies so as to reduce the chances of future failure at a later stage due to toxicity.

sAPPα [2] = experiment: sAPPα increasing activity of THPI-244 analogs; assay type: cell-based
Source text: The following table illustrates Chemical structures and properties of THPI-244 analogs selected out of 37 analogs, and each have significant sAPPα increasing activity. Toxicity is the minimum dose for toxicity.

TrkA = experiment: Mouse brain lysate immunoblot, TrkA; assay type: in vivo; details: i.p. 100 mg/kg for 5 days, brain lysates
Description: as §1

TrkA receptors = TrkA receptors (Homo sapiens, UniProt P04629); experiment: Octet Red label-free binding; details: biotinylated TrkA on SSA biosensors
Sequence of TrkA receptors (P04629 33-796): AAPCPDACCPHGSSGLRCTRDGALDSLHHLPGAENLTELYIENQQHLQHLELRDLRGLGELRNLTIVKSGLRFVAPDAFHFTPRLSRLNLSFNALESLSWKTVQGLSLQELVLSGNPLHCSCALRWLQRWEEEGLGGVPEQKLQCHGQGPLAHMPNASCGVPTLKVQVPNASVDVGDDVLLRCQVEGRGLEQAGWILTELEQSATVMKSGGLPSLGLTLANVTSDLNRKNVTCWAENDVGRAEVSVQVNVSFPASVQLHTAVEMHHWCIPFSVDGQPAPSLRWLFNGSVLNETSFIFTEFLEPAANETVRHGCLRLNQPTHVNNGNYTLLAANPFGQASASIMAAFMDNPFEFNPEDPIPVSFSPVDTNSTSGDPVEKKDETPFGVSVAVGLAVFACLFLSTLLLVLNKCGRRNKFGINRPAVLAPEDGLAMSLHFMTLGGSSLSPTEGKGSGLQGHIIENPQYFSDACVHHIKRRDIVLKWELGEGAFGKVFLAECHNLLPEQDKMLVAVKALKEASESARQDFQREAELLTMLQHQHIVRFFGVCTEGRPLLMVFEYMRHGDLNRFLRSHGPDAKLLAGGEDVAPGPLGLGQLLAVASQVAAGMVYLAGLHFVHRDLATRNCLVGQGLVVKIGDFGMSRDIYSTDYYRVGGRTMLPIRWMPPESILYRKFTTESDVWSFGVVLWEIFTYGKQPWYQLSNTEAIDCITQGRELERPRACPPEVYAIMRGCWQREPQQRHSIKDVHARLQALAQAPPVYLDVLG
Description: FIGS. 9.1A and B illustrate that THPI-244 directly binds TrkA receptors as determined by label-free, real-time Octet Red detection system. FIG. 9.1A illustrates that biotinylated TrkA was loaded on to super-streptavidin (SSA) biosensors and after obtaining the baseline, were incubated with THPI-244 which dose-dependently bound TrkA receptors (Association). Incubation with kinetics buffer rapidly dissociated the binding.

[3] = test system: sAPPα release, NT2 cells stably expressing human APP751; experiment: sAPPα ELISA, NT2 cells expressing APP751; assay type: cell-based; details: 24 h
Description: (5). To confirm the effect of THPI-244 on sAPPα levels in a neuronal cell line and by a tertiary assay, we exposed human Neuron-committed Teratocarcinoma cell line (NT2) stably expressing human APP751 to different concentrations of THPI-244 for 24 h and compared with that of Bryostatin, a classical activator of PKC known to stimulate sAPPα release. […] Levels of sAPPα were measured by ELISA using commercially available kit (cat #27734, IBL-America, Minneapolis, Minn., USA). […] Similar biphasic effect of Bryostatin was confirmed for Aβ42 also, measured again in NT2 stable cells by ELISA (cat # KHB3441, Life Technologies, Grand Island, N.Y., USA). Consistent with sAPPα, THPI-244 decreased Aβ42 levels dose-dependently starting from 50 nM (28%, p<0.05) to 2000 nM (64%, p<0.001) (n=4 independent experiments) (FIG. 1.7). Thus THPI-244 increased non-amyloidogenic processing of APP in NT2 cells.

[4] = Brain levels after i.p. injection (LC-MS); assay type: in vivo, mouse
Description: (3). Since blood brain barrier (BBB) is the main obstacle for drug development for any CNS disorders, we first wanted to verify whether compound THPI-244 enters the brain. We followed protocols exactly as published previously from our laboratory (Hayes, C D et al., 2013, BMC Med. 26, 11.81). […] We generated a standard graph (FIG. 1.4 (middle)) to be used in the quantitation of THPI-244 in the brain after intraperitoneal (i.p.) injections at 0.2 mg/kg body weight.

C57BL/6 mice = experiment: Lethal dose (LD50) study in mice; assay type: in vivo, mouse
Source text: Wild-type (WT) C57BL/6 mice aged about 6 months were used in the study. The compound THPI-244 was initially dissolved in 100% DMSO and then diluted to final 10% DMSO with phosphate buffered saline (PBS). […] Among these 6 mice, 3 mice received repeated injections (i.p) of compound THPI-244 for 5 days.

[5] = i.p. 0.2 mg/kg body weight, mouse

With O=C(Cc1ccccc1)N[C@H](CNc1nc(CN2CCN(C(=O)Cc3ccccc3)CC2)cs1)c1ccccc1 [THPI-244] as the compound, how does the “increase of sAPPα” value (sAPPα [1]) read?
Its value is 89%.

And the TrkA protein levels (TrkA protein levels; THPI-244 100 nM)?
The TrkA protein levels was 197%.

What about the TrkA protein levels (TrkA protein levels; THPI-244 100 nM with PKC inhibitor GF 109203 1.0 nM) of the same compound?
Its TrkA protein levels is 192%.

What about the “concentration from which cytotoxicity is significant” value (human primary neurons; MTT, 24 h exposure, human primary neurons) of the same compound?
Its value is 40 µM.

And the therapeutic window (human primary neurons; human primary neurons and AD fibroblasts)?
Its therapeutic window is 800.

And the “% sAPPα ↑” value (sAPPα [2])?
Its value is 257%.

What about the “increase of TrkA” value (TrkA) of the same compound?
The value was 78%.

What about the Kd (TrkA receptors) of the same compound?
Its Kd is 5.2 µM.

What about the “concentration from which sAPPα increase is significant” value [3] of the same compound?
The value was 50 nM.

What about the “amount remaining in the brain at 240 min” value [4, 5] of the same compound?
Its value is “negligible amount”.

And the “time to maximum levels in the brain” value [4, 5]?
Its value is no more than 5 min.

What about the blood-brain barrier passage ([4]; i.p. administration, mouse brain) of the same compound?
Its blood-brain barrier passage is “passes through the blood-brain barrier”.

What about the death (C57BL/6 mice; 100 mg/kg i.p., 6 mice, monitored for 5 days) of the same compound?
Its death is “did not result in the death of any of the 6 mice”.

And the survival (C57BL/6 mice; 200 mg/kg, single mouse)?
Its survival is “survived without visible ill effects”.

And the lethal effect (C57BL/6 mice; repeated i.p. injections for 5 days, 3 mice)?
Its lethal effect is “None of the mice showed any lethal effect”.
